According to the supplement of paper PMC8612539:
Converted amounts (≈) assume the structure as drawn.

Tested on: Histophilus somni
Assay: minimum inhibitory concentration (MIC)
Description: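 Broth microdilution MIC (Sensititre BOPO7F bovine plate, CLSI methods) of 19 antimicrobials against field isolates of P. multocida, M. haemolytica, H. somni (deep nasopharyngeal swabs) and E. coli, Enterococcus spp. (rectal swabs) from weaned dairy heifers. Incubation 16-24 h at 35 C. MIC is the lowest concentration preventing visible growth. Values with <= or > lie at the tested range limits. Trimethoprim-sulfamethoxazole is given as the trimethoprim component of a 1:19 mixture.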

CC[C@H]1OC(=O)C[C@@H](O)[C@H](C)[C@@H](O[C@@H]2O[C@H](C)[C@@H](O)[C@H](N(C)C)[C@H]2O)[C@@H](CCN2CCCCC2)C[C@@H](C)C(=O)/C=C/C(C)=C/[C@@H]1CN1CCCCC1 [Tildipirosin]
Settings | minimum inhibitory concentration [mg/L]
isolate (source animal id): 3 | ≤ 1
isolate (source animal id): 4 | 2 (≈ 2.72 µM)
isolate (source animal id): 7 | ≤ 1
isolate (source animal id): 14 | ≤ 1
isolate (source animal id): 15 | 4 (≈ 5.45 µM)
isolate (source animal id): 17 | ≤ 1
isolate (source animal id): 18 | ≤ 1
isolate (source animal id): 20 | ≤ 1
isolate (source animal id): 23 | 2 (≈ 2.72 µM)
isolate (source animal id): 45 | 4 (≈ 5.45 µM)
isolate (source animal id): 53 | 4 (≈ 5.45 µM)
isolate (source animal id): 83 | 2 (≈ 2.72 µM)
isolate (source animal id): 88 | 2 (≈ 2.72 µM)
isolate (source animal id): 92 | 4 (≈ 5.45 µM)
isolate (source animal id): 93 | ≤ 1
isolate (source animal id): 99 | 2 (≈ 2.72 µM)
isolate (source animal id): 100 | 4 (≈ 5.45 µM)
isolate (source animal id): 105 | ≤ 1
isolate (source animal id): 107 | 2 (≈ 2.72 µM)
isolate (source animal id): 108 | 4 (≈ 5.45 µM)
isolate (source animal id): 109 | 4 (≈ 5.45 µM)
isolate (source animal id): 110 | 4 (≈ 5.45 µM)
isolate (source animal id): 117 | ≤ 1
isolate (source animal id): 121 | ≤ 1
isolate (source animal id): 123 | 2 (≈ 2.72 µM)
isolate (source animal id): 124 | 2 (≈ 2.72 µM)
isolate (source animal id): 127 | ≤ 1
isolate (source animal id): 128 | 2 (≈ 2.72 µM)
isolate (source animal id): 130 | 2 (≈ 2.72 µM)
isolate (source animal id): 132 | 4 (≈ 5.45 µM)
isolate (source animal id): 135 | 2 (≈ 2.72 µM)
isolate (source animal id): 140 | 2 (≈ 2.72 µM)
isolate (source animal id): 141 | 2 (≈ 2.72 µM)
isolate (source animal id): 142 | > 16
isolate (source animal id): 144 | 4 (≈ 5.45 µM)
isolate (source animal id): 146 | 4 (≈ 5.45 µM)
isolate (source animal id): 147 | > 16
isolate (source animal id): 151 | 2 (≈ 2.72 µM)
isolate (source animal id): 153 | 8 (≈ 10.9 µM)
isolate (source animal id): 154 | > 16
isolate (source animal id): 156 | > 16
isolate (source animal id): 157 | 8 (≈ 10.9 µM)
isolate (source animal id): 176 | 2 (≈ 2.72 µM)
isolate (source animal id): 183 | 2 (≈ 2.72 µM)
isolate (source animal id): 186 | 4 (≈ 5.45 µM)
isolate (source animal id): 196 | 4 (≈ 5.45 µM)
isolate (source animal id): 198 | 4 (≈ 5.45 µM)
isolate (source animal id): 200 | 8 (≈ 10.9 µM)
isolate (source animal id): 206 | 8 (≈ 10.9 µM)
isolate (source animal id): 208 | 8 (≈ 10.9 µM)
isolate (source animal id): 210 | 2 (≈ 2.72 µM)
isolate (source animal id): 212 | ≤ 1
isolate (source animal id): 215 | 4 (≈ 5.45 µM)
isolate (source animal id): 216 | 8 (≈ 10.9 µM)
isolate (source animal id): 218 | 4 (≈ 5.45 µM)
isolate (source animal id): 219 | 8 (≈ 10.9 µM)
isolate (source animal id): 224 | 8 (≈ 10.9 µM)
isolate (source animal id): 228 | 4 (≈ 5.45 µM)
isolate (source animal id): 230 | ≤ 1
isolate (source animal id): 233 | ≤ 1
isolate (source animal id): 238 | ≤ 1
isolate (source animal id): 239 | 2 (≈ 2.72 µM)
isolate (source animal id): 241 | 2 (≈ 2.72 µM)
isolate (source animal id): 242 | 2 (≈ 2.72 µM)
isolate (source animal id): 243 | ≤ 1
isolate (source animal id): 245 | ≤ 1
isolate (source animal id): 246 | 4 (≈ 5.45 µM)
isolate (source animal id): 247 | 2 (≈ 2.72 µM)
isolate (source animal id): 248 | ≤ 1
isolate (source animal id): 250 | 2 (≈ 2.72 µM)
isolate (source animal id): 251 | 4 (≈ 5.45 µM)
isolate (source animal id): 252 | 4 (≈ 5.45 µM)
isolate (source animal id): 254 | 4 (≈ 5.45 µM)
isolate (source animal id): 258 | 2 (≈ 2.72 µM)
isolate (source animal id): 259 | 2 (≈ 2.72 µM)
isolate (source animal id): 262 | ≤ 1
isolate (source animal id): 264 | ≤ 1
isolate (source animal id): 265 | 2 (≈ 2.72 µM)
isolate (source animal id): 266 | 2 (≈ 2.72 µM)
isolate (source animal id): 267 | 2 (≈ 2.72 µM)
isolate (source animal id): 269 | 2 (≈ 2.72 µM)
isolate (source animal id): 271 | 2 (≈ 2.72 µM)
isolate (source animal id): 272 | ≤ 1
isolate (source animal id): 274 | ≤ 1
isolate (source animal id): 276 | ≤ 1
isolate (source animal id): 278 | 2 (≈ 2.72 µM)
isolate (source animal id): 280 | ≤ 1
isolate (source animal id): 281 | 4 (≈ 5.45 µM)
isolate (source animal id): 283 | 2 (≈ 2.72 µM)
isolate (source animal id): 288 | 4 (≈ 5.45 µM)
isolate (source animal id): 291 | 2 (≈ 2.72 µM)
isolate (source animal id): 292 | 4 (≈ 5.45 µM)
isolate (source animal id): 296 | 2 (≈ 2.72 µM)
isolate (source animal id): 306 | 8 (≈ 10.9 µM)
isolate (source animal id): 336 | 8 (≈ 10.9 µM)
isolate (source animal id): 337 | 8 (≈ 10.9 µM)
isolate (source animal id): 341 | 4 (≈ 5.45 µM)
